Columns and labels:
PC12 cells [1] = assay: Microinjection success rate (Lucifer Yellow injection) using photosensitized membrane destruction; type: cell-based, rat; conditions: BAT-containing injection liquid, no light applied, capillary kept in contact with cell, n=30
Method: To determine whether the microinjection process was successful, the water-soluble fluorescent pigment Lucifer Yellow CH (LY)was added to an injection liquid. […] Evaluation was made to determine how the success rate of injection of the LY into the cell varied depending on the presence of the photosesirizer BAT in the injection liquid or the presence of application of the BAT exciting light.
To make the microinjection successful, a glass capillary having a diameter of several hundred nanometers at a tip opening thereof must be brought into contact with the cell at a high speed to physically instantaneously penetrate and punch the cell membrane. In the experiments, an electric micromanipulator (manufactured by Eppendorf; Micromanipulator 5171) and an electric injector (manufactured by Eppendorf; Transjector 5246), which can both operate under the control of a program, could be used to set a speed at which the capillary contacted with the membrane, at an arbitrary value. In addition, the injection capillary was a commercially available product (manufactured by Eppendorf; FemtoTips) mass-produced for the above apparatuses. […]

PC12 cells [2] = assay: Cell survival rate after injection process (LY retaining rate); type: cell-based, rat
Method: A cell survival rate after the injection process was compared between cells subjected to the normal microinjection process using the physical shearing force and cells subjected to the photosensitizing microinjection.
The LY was injected into the cell by means of microinjection. In a dead cell with its cell membrane collapsed, the LY disperses quickly to lose its color [Cell, 14, 741-759 (1987)]. Thus, using a rate at which the cell subjected to the injection process holds the LY, as an index indicating the cell survival rate, the survival rates 3 and 6 days after the injection process were compared to each other.
In FIG. 13, the axis of abscissa indicates the number of days passing after the injection process (unit: day), while the axis of ordinate indicates the survival rate (units %).

PC12 cells [3] = assay: Membrane resistance and membrane potential after light irradiation (patch clamp); type: cell-based, rat
Method: Since minute membrane defects must be monitored at a cell level for a period of time in the order of seconds to several minutes including a recovery process, the patch clamp method, which is used for electrophysiological experiments, was used to measure the potential between the cell membranes or ion current transmitted through the cell membrane.
The photosensitizer BAT was dispersed in a HEPES (25 mM, pH 7.4) buffer.
The cells were incubated in a culture medium for electrophysiological experiments at roam temperature. The culture medium used for this experiment was composed of 124 mM of NaCl, 5 mM of KCl, 2.4 mM of CaCl2.2H2O, 1.3 mM of MgSO4.7H2O, and 10 mM of glucose, with a final pH adjusted to 7.4 by addition of NaOH. To prevent the averse effects of evaporation, the culture medium for electrophysiological experiments was replaced with a new at the intervals of 40 minutes at maximum.
The BAT was added so as to have a final Concentration of 49 μM. The quantity of light applied was set at three levels: 0.47 J/cm^2, 0.94 J/cm^2, and 1.57 J/cm^2.
A liquid in the patch electrode was composed of 132 mM of KCl, 8 mM of NaCl, 2 mM of MgCl2, 30 mM of HEPES, 4 mM of Na2ATP, 0.3 mM of GTP, and 0.5 mM of EGTA, with a final pH adjusted to 7.3 by addition of NaOH.
Since a zoom function allows light to be concentrated in an area smaller than a normal area, the amount of light per unit area increases in proportion to the square of a zoom magnification. The excitation light is transmitted through the plastic of the collagen coat dish before actually reaching the cell, so that a decrease in light quantity must actually be taken into consideration.
In irradiating the cell with the excitation light, a TTL signal operating in connection with an electrophysiological record is transmitted to the light source as required to synchronize the light irradiation with electric measurements.
Before starting the electrophysiological experiments, the cell membrane potential had been maintained between −80 and −60 mV.
The cell membrane potential measuring amplifier was Axpopatch 1-D (Axon Instruments). The membrane resistance was calculated from a change in membrane potential occurring when a 1-Hz rectangular-wave overpolarization current flowed through the membrane for 350 milliseconds. The amount of, current supplied (0.1 or 0.15 nA) was selected so that the change in membrane potential would not exceed 30 mV when power was supplied. Under these experimental conditions, the PC12 cell generated no action potential. Measured potential and current values were analyzed using Axoscope ver. 1.1 (manufactured by Axon Instruments).
In FIG. 9, the axis of abscissa indicates an elapsed time (unit: second). The axis of ordinate indicates the resistance of the cell membrane (unit: %) in the upper part and the potential thereof in the lower part, both values being normalized by setting corresponding values prior to irradiation equal to […]. The membrane resistance reflects the ion transmission inhibiting capability, and the membrane potential reflects the active ion transporting capability of the membrane effected by activities of various intermembrane ion transporting systems as well as the ion transmission inhibiting capability.
A microinjection device was connected to a minute glass pipette held in a micromanipulator, and the minute glass pipette was filled with a solution with the photosensitizer BAT dispersed therein (BAT concentration: 2 mM, water solvent). The glass pipette was located in such a manner that its tip was connected to the patch electrode and located within 200 μm from a cell for which the membrane potential and resistance were to be measured.

Water solubility = type: physicochemical
Text: A thiophen oligomer having an aminomethyl group at a terminal thereof has a higher water solubility than any other derivative of the same kind due to this terminal aminomethyl group. The water solubility varies depending on how the aminomethyl group is released. […] By irrigating the cell with the BAT-dispersed solution under the above pH condition, this molecule can be easily added to a surface of the cell. The hydrophilic property of the BAT molecule is new and is absent from the other modified thiophen oligomers including an a terthienyl derivative as well as other molecules designed as conductive high-molecular monomers.

[4] = B: 4.94 J/cm^2 light, BAT 49 μM, several seconds after irradiation

Cl.Cl.NCc1ccc(-c2ccc(-c3ccc(CN)s3)s2)s1 [BAT, 5′5″-bis(aminomethyl)-2,2′:5′2″-terthiophene dihydrochloride]
injection success rate (PC12 cells [1]): 13%
cell survival rate (LY retention) (PC12 cells [2]; photosensitizing injection (BAT + light), three to six days after injection): about 90%
cell membrane resistance and membrane potential after light irradiation (PC12 cells [3]; A: 0.47 J/cm^2 light, BAT 49 μM, 363-nm argon ion laser): varied slightly but not significantly
cell membrane resistance after light irradiation (PC12 cells [3]; [4]): decreased
membrane potential after light irradiation (PC12 cells [3]; [4]): depolarized
cell membrane potential after laser beam (PC12 cells [3]; BAT 2 mM dispersed solution ejected from minute glass pipette onto target cell, laser as in Example 3): depolarized
time after light irradiation to loss of membrane resistance and potential (PC12 cells [3]; C: 1.57 J/cm^2 light, BAT 49 μM): about 8 seconds
cell membrane resistance and membrane potential after light irradiation (PC12 cells [3]; C: 1.57 J/cm^2 light, BAT 49 μM, then remained at fixed values (irreversible)): lost
water solubility (Water solubility; acid water solution (bivalent positive charge)): easily soluble
water solubility (Water solubility; water solution with biologically suitable pH range (near 7.4), univalent positive charge type): maintains a high water solubility

NNC(=O)NN1C(=O)c2cc(S(=O)(=O)O)cc3c(N)c(S(=O)(=O)O)cc(c23)C1=O [LY, Lucifer Yellow CH, reference compound]
survival rate (PC12 cells [2]; control examples: normal injection, 3 days after the injection): 17%

— patent US6537800B1, “Apparatus for automatically measuring minute membrane potential” (Center for Advanced Science and Technology Incubation, Ltd., priority 1998, dated 2003)
